Measured values taken from patent publication US20020028938A1, “Prostaglandin endoperoxide H synthase biosynthesis inhibitors” (priority 1997, published 2002).

Experiments:
[1] = target: T1, recombinant human Cox-1 (r-hu Cox1) (Homo sapiens, UniProt P23219); assay: Recombinant human PGHS-1 enzyme assay (RHUCX1); type: biochemical; conditions: for inhibition at 100 µM / inhibition at 10 µM: read-out: RHUCX1 % Inh. at Dose
T1 construct: made in house; host or cells: baculovirus/Sf9 insect cells (microsomes)
Procedure: (§1) To compare the mean responses of the treatment groups, analysis of variance was applied. Percent inhibition values were determined by comparing the individual treatment mean values to the mean of the control group. Linear regression was used to estimate IC50's/ED50's in appropriate assays.
(§2) EIA reagents for prostaglandin determination were purchased from Perseptive Diagnostics, (Cambridge, Mass.). Prostaglandin E2 (PGE2) levels in lavage fluids were determined after the samples were dried under nitrogen and reconstituted with assay buffer. PGE2 levels in enzyme assays or cell culture media were measured against standards prepared in the same milieu. The immunoassays were conducted as recommended by the manufacturer. The EIA was conducted in 96 well microtiter plates (Nunc Roskilde, Denmark) and optical density was measured using a microplate reader (Vmax, Molecular Devices Corp., Menlo Park, Calif.).
(§3) Inhibition of prostaglandin biosynthesis in vitro was evaluated using recombinant human Cox-1 (r-hu Cox1) and Cox-2 (r-hu Cox-2) enzyme assays. […] The reaction was allowed to run for 2.5 minutes at room temperature prior to quenching with HCl and neutralization with NaOH. PGE2 production in the presence and absence of the drug was determined by EIA analysis. The EIA was conducted in 96 well microtiter plates (Nunc Roskilde, Denmark) and optical density was measured using a microplate reader (Vmax, Molecular Devices Corp., Menlo Park, Calif.). EIA reagents for prostaglandin determination were purchased from Perseptive Diagnostics (Cambridge, Mass.). PGE2 levels were measured against standards prepared in the same milieu. The immunoassays were conducted as recommended by the manufacturer.

[2] = target: T2, recombinant human Cox-2 (r-hu Cox-2) (Homo sapiens, UniProt P35354); assay: Recombinant human PGHS-2 enzyme assay (RHUCX2); type: biochemical; conditions: for IC50: read-out: RHUCX2 IC50 (parenthetical value)
T2 construct: made in house; host or cells: baculovirus/Sf9 insect cells (microsomes)
T2 sequence (P35354 18-604): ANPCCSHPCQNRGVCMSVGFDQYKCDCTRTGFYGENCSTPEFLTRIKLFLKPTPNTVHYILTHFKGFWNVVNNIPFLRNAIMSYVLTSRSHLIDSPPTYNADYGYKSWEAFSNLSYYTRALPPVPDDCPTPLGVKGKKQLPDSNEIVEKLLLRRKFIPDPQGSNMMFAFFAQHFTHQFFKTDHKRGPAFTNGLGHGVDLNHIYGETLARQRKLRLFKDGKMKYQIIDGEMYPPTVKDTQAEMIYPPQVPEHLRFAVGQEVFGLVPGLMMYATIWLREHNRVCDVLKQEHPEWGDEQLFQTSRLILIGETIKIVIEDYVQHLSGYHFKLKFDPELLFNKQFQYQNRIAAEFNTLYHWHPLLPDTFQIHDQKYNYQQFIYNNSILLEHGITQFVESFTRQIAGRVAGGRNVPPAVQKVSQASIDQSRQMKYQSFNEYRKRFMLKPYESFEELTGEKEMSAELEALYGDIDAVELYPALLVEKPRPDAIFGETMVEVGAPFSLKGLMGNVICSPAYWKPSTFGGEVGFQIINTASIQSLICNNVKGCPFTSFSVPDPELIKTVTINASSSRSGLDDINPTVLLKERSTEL
Procedure: as §1, §2, §3

[3] = 0.01 μM, read-out: RHUCX2 % Inh. at Dose
[4] = 0.1 μM, read-out: RHUCX2 % Inh. at Dose
[5] = 1 μM, read-out: RHUCX2 % Inh. at Dose

T1 sequence (P23219 24-599): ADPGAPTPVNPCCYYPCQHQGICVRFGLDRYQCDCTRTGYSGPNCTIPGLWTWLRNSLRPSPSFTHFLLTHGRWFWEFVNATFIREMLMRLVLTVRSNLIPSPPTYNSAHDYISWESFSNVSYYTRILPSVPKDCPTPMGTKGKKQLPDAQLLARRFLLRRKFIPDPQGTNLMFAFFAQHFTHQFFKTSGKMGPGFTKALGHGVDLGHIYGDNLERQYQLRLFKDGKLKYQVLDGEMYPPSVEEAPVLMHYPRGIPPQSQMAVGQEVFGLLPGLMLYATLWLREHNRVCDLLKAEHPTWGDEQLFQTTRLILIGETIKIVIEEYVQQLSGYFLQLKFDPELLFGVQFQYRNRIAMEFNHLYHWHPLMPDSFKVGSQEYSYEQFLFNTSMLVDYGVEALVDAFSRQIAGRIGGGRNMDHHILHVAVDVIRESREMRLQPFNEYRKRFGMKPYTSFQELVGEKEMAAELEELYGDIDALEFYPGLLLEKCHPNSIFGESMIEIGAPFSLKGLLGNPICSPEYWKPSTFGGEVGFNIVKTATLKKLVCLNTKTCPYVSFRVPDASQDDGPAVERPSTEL

Row | SMILES | inhibition at 100 µM ([1]; 100 μM) [%] | RHUCX1 % Inh. at Dose (μM) ([1]; 100 μM) | RHUCX2 % Inh. at Dose (μM) ([2]; 0.1 μM) | RHUCX2 % Inh. at Dose (μM) ([2]; 1 μM) | RHUCX2 % Inh. at Dose (μM) ([2]; 10 μM) | further results
1 | CS(=O)(=O)c1ccc(-c2cnn(CC=C(Cl)Cl)c(=O)c2-c2ccc(F)cc2)cc1 [Example 35] | – | – | – | – | – | inhibition at 10 µM ([1]; 10 μM): 34%; IC50 [2]: 17 nM; melting point: 150 to 152 °C
2 | CS(=O)(=O)c1ccc(-c2cnn(CC=Cc3ccccc3)c(=O)c2-c2ccc(F)cc2)cc1 [Example 36, 2-(3-Phenyl-2-propenyl)-4-(4-fluorophenyl)-5-[4-(methylsulfonyl)phenyl]-3(2H)-pyridazinone] | – | – | – | – | – | inhibition at 10 µM ([1]; 10 μM): 21%; IC50 [2]: 570 nM; melting point: 165 to 167 °C
3 | CS(=O)(=O)c1ccc(-c2cnn(CC(F)(F)F)c(=O)c2Oc2cc(C(F)(F)F)ccc2F)cc1 [Example 263, 2-(2,2,2-Trifluoroethyl)-4-(2-fluoro-5-trifluoromethylphenoxy)-5-[4-(methylsulfonyl)phenyl]-3(2H)-pridazinone] | – | 1 @ 100% | 53 @ 0.1% | 76 @ 1% | 85 @ 10% | –
4 | COc1ccc(CCOc2c(-c3ccc(S(C)(=O)=O)cc3)cnn(CC(F)(F)F)c2=O)cc1OC [Example 272] | – | 0 @ 100% | 55 @ 0.1% | 70 @ 1% | – | –
5 | CS(=O)(=O)c1ccc(-c2cnn(CC(F)(F)F)c(=O)c2OCCN2CCOCC2)cc1 [Example 273] | – | 16 @ 100% | – | 42 @ 1% | 54 @ 10% | –
6 | CS(=O)(=O)c1ccc(-c2cnn(CC(F)(F)F)c(=O)c2SC2CCCC2)cc1 [Example 283] | – | 0 @ 100% | 54 @ 0.1% | 71 @ 1% | 90 @ 10% | –
7 | CS(=O)(=O)c1ccc(-c2cnn(-c3cccc(Cl)c3)c(=O)c2C2CCCC2)cc1 [Example 362, 2-(3-Chlorophenyl)-4-(cyclopentyl)-5-[4-(methylonylsulfonyl)phenyl]-(2H)-pyridazinone] | – | 1 @ 100% | – | 49 @ 1% | 84 @ 10% | –
8 | CC(C)CCOc1c(-c2ccc(S(N)(=O)=O)cc2)cnn(-c2ccc(F)cc2)c1=O [Example 398, 2-(4-Fluorophenyl)-4-(3-methylbutoxy)-5-[4-(aminosulfonyl)phenyl]-3(2H)-pyrdazinone] | 26 | – | – | – | – | IC50 [2]: 202 nM
9 | CC(C)COc1c(-c2ccc(S(N)(=O)=O)c(F)c2)cnn(-c2cccc(Cl)c2)c1=O [Example 412] | 31 | – | – | – | – | IC50 [2]: 2 nM
10 | CC(C)CCCc1c(-c2ccc(S(C)(=O)=O)cc2)cnn(-c2cccc(Cl)c2)c1=O [Example 421, 2-(3-Chlorophenyl)-4-(4-methylpentyl)-5-[4-(methylsulfonyl)phenyl]-3(2H)-pyridazinone] | – | – | – | – | – | IC50 ([1]; read-out: RHUCX1 IC50 (parenthetical value)): 269 nM; inhibition at 0.01 µM [2, 3]: 38%; inhibition at 0.1 µM [2, 4]: 81%; inhibition at 1 µM [2, 5]: 92%
11 | CC(C)=CCCOc1c(-c2ccc(S(C)(=O)=O)cc2)cnn(-c2ccc(F)cc2)c1=O [Example 424] | – | 7 @ 100% | 58 @ 0.1% | 75 @ 1% | – | RHUCX2 % Inh. at Dose (μM) ([2]; 0.01 μM): 33 @ 0.01%

Now from value to compound, other results behind:

Row | inhibition at 100 µM ([1]; 100 μM) [%] | RHUCX1 % Inh. at Dose (μM) ([1]; 100 μM) | RHUCX2 % Inh. at Dose (μM) ([2]; 0.1 μM) | RHUCX2 % Inh. at Dose (μM) ([2]; 1 μM) | RHUCX2 % Inh. at Dose (μM) ([2]; 10 μM) | SMILES | further results
12 | 25 | – | – | – | – | CS(=O)(=O)c1ccc(-c2cnn(Cc3ccc(F)cc3F)c(=O)c2-c2ccc(F)cc2)cc1 [Example 22, 2-(2,4-Difluorobenzyl)-4-(4-fluorophenyl)-5-[4-(methylsulfonyl)phenyl]-3(2H)-pyridazinone] | inhibition at 0.01 µM [2, 3]: 35%; inhibition at 0.03 µM ([2]; 0.03 μM, read-out: RHUCX2 % Inh. at Dose): 91%; melting point: 179 to 182 °C
13 | 1 | – | – | – | – | CS(=O)(=O)c1ccc(-c2cnn(Cc3ccccc3C(F)(F)F)c(=O)c2-c2ccc(F)cc2)cc1 [Example 25, 2-(2-Trifluoromethylbenzyl)-4-(4-fluorophenyl)-5-[4-(methylsulfonyl)phenyl]-3(2H)-pyridazinone] | inhibition at 0.1 µM [2, 4]: 66%; inhibition at 1 µM [2, 5]: 93%; melting point: 87 to 90 °C
14 | 10 | – | – | – | – | CS(=O)(=O)c1ccc(-c2cnn(CC3CC3)c(=O)c2-c2ccc(F)cc2)cc1 [Example 26, 2-(Cyclopropylmethyl)-4-(4-fluorophenyl)-5-[4-(methylsulfonyl)phenyl]-3(2H)-pyridazinone] | inhibition at 0.01 µM [2, 3]: 44%; inhibition at 0.1 µM [2, 4]: 44%; inhibition at 1 µM [2, 5]: 91%; melting point: 118 to 121 °C
15 | – | 7 @ 100% | – | 4 @ 1% | 51 @ 10% | CS(=O)(=O)c1ccc(-c2cnn(CC(F)(F)F)c(=O)c2Nc2ccc(F)cc2F)cc1 [Example 314] | –
16 | 23 | – | – | – | – | CS(=O)(=O)c1ccc(-c2cnn(Cc3ccccc3)c(=O)c2-c2cc3ccccc3o2)cc1 [Example 318, 2-Benzyl-4-(2-benzofuranyl)-5-[4-(methylsulfonyl)phenyl]-3(2H)-pyridazinone] | inhibition at 0.1 µM [2, 4]: 77%; inhibition at 1 µM [2, 5]: 97%
17 | – | ∠@ 100 | 36 @ 0.1% | 45 @ 1% | 45 @ 10% | CN(Cc1ccccc1)c1c(-c2ccc(S(C)(=O)=O)cc2)cnn(-c2cccc(Cl)c2)c1=O [Example 354, 2-(3-Chlorophenyl)-4-(N-methylbenzylamnino)-5-[4-(methylsulfonyl)phenyl]-3(2H)-pyridazinone] | –
18 | – | – | 65 @ 0.1% | 76 @ 1% | – | Cc1ccc(-c2c(-c3ccc(S(N)(=O)=O)cc3)cnn(-c3ccc(F)cc3)c2=O)cc1F [Example 387] | RHUCX1 % Inh. at Dose (μM) ([1]; 1 μM): 60 @ 1%; RHUCX1 % Inh. at Dose (μM) ([1]; 10 μM): 57 @ 10%; RHUCX2 % Inh. at Dose (μM) ([2]; 0.01 μM): 56 @ 0.01%
19 | 15 | – | – | – | – | NS(=O)(=O)c1ccc(-c2cnn(-c3cccc(Cl)c3)c(=O)c2CCc2ccccc2)cc1 [Example 393, 2-(3-Chlorophenyl)-4-(phenethyl)-5-[4-(aminosulfonyl)phenyl]-3(2H)-pyridazinone] | inhibition at 0.1 µM [2, 4]: 58%; inhibition at 1 µM [2, 5]: 85%
20 | – | 53 @ 100% | 37 @ 0.1% | 52 @ 1% | – | CC(C)=CCOc1c(-c2ccc(S(C)(=O)=O)cc2)cnn(-c2ccc(F)cc2)c1=O [Example 422] | RHUCX1 % Inh. at Dose (μM) ([1]; 1 μM): 76 @ 1%; RHUCX1 % Inh. at Dose (μM) ([1]; 10 μM): 82 @ 10%
